Among the data in PubChem BioAssay (NCI) are TGI and GI50 values, retold here.

Test systems include HCT-116 colon; SK-MEL-2 melanoma; NCI-H522 lung; SF-539 CNS; SF-268 CNS; MOLT-4 leukemia; UO-31 renal; U251 CNS; MALME-3M melanoma.
Holding throughout (experiment): NCI-60 cell line screen, 48 h

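Protocol summary: plate cells (96-well), add compound at 5 concentrations, incubate 48 h, interpolate endpoints linearly. GI50 marks 50% less growth. TGI: total growth inhibition.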

Regarding `CCCn1c(SC)nc(COC(=O)NC)c1COC(=O)NC`, the TGI in the test with HCT-116 colon, in the test with SK-MEL-2 melanoma, with NCI-H522 lung, in the test with SF-539 CNS, in the test on SF-268 CNS and in the test with MOLT-4 leukemia was > 100 µM in each case. In addition, the TGI in the test with UO-31 renal was > 100 µM.

With `O=C(Nc1ccc(Cl)cc1Cl)C(=O)C(C(=O)c1ccc2ccccc2c1)C1OC(=O)c2ccccc21` (stereo not given), the TGI worked out at 18 µM in the test on HCT-116 colon; 31.7 µM in the test on SK-MEL-2 melanoma; 16.2 µM in the test with U251 CNS; 11.7 µM with SF-539 CNS; 27 µM in the test on UO-31 renal.

On to `O=C(Nc1cccs1)c1c(O)[nH]c(=S)[nH]c1=O`, for which the TGI in the test on SK-MEL-2 melanoma, in the test on U251 CNS, with NCI-H522 lung, with SF-539 CNS, with SF-268 CNS and with MOLT-4 leukemia was > 100 µM each time. For the same molecule, in the test on UO-31 renal, the TGI is > 100 µM.

For the molecule `CCN(CC)CCNc1ccc([N+](=O)[O-])c2sc3ccccc3c(=O)c12`, the GI50 in the test on HCT-116 colon is 0.36 µM; in the test with SK-MEL-2 melanoma it was 1.21 µM; with MALME-3M melanoma, 1.47 µM; with U251 CNS, 0.607 µM; in the test on SF-539 CNS, 3.09 µM; in the test with SF-268 CNS it was 1.08 µM. Besides, the GI50 with MOLT-4 leukemia is 0.386 µM; in the test on UO-31 renal, 0.284 µM. In addition, the TGI in the test on HCT-116 colon was found to be 1.56 µM; in the test with SK-MEL-2 melanoma, 5.53 µM; with MALME-3M melanoma, 3.63 µM; with U251 CNS, 2.01 µM; in the test on SF-539 CNS, 10.8 µM; with SF-268 CNS, 2.5 µM. In addition, the TGI in the test on MOLT-4 leukemia came out at 1.87 µM; with UO-31 renal, 1.66 µM.

Turning to `O=C1C=CC=CC2CC=C[C@@H](O)C12` (stereo not given in full), the TGI in the test on HCT-116 colon was 27.7 µM; in the test with SK-MEL-2 melanoma, 58.5 µM; in the test with MALME-3M melanoma it was 46.8 µM; with NCI-H522 lung, 26.8 µM; in the test on SF-539 CNS, 63.9 µM; with SF-268 CNS, 54.5 µM. Moreover, the figures for the TGI in the test with MOLT-4 leukemia and with UO-31 renal were > 100 µM and 31.5 µM, respectively.

Consider `COc1ccc2c(c1)/C(=C\c1cccnc1)C(=O)N2`, for which the GI50 in the test on HCT-116 colon was 9.72 µM; in the test on SK-MEL-2 melanoma it was 42.3 µM; in the test with MALME-3M melanoma, 21 µM; in the test with U251 CNS it was 7.84 µM; with NCI-H522 lung, 17.8 µM; in the test on SF-268 CNS, 12.9 µM. The GI50 in the test on MOLT-4 leukemia is 23 µM; with UO-31 renal, 25.9 µM. For the same molecule, the TGI with HCT-116 colon is > 100 µM; with SK-MEL-2 melanoma, > 100 µM; in the test with MALME-3M melanoma, 47.9 µM; in the test with U251 CNS, 47.7 µM; with NCI-H522 lung it was 64 µM; in the test on SF-268 CNS it was 37 µM. For the same molecule, the TGI with MOLT-4 leukemia and with UO-31 renal was > 100 µM throughout.

As to `Nc1nc2c(c(=O)[nH]1)NC(CO)CN2` (stereo not given), the TGI in the test on HCT-116 colon, in the test with MALME-3M melanoma, in the test on U251 CNS, in the test on NCI-H522 lung, with SF-539 CNS and with MOLT-4 leukemia was > 100 µM throughout. Moreover, in the test on UO-31 renal, the TGI was > 100 µM.

Regarding `CN(C)c1ccc([O-])cc1.CN(C)c1ccc([O-])cc1.CN(C)c1ccc([O-])cc1.CN(C)c1ccc([O-])cc1.[Ti+4]`, the GI50 is > 100 µM with HCT-116 colon; > 100 µM in the test on SK-MEL-2 melanoma; > 100 µM with MALME-3M melanoma; 33.2 µM in the test on NCI-H522 lung; > 100 µM with SF-539 CNS; > 100 µM in the test with SF-268 CNS. For the same molecule, the results for the GI50 in the test with MOLT-4 leukemia and with UO-31 renal were 38.1 µM and > 100 µM, respectively. Also, the TGI was > 100 µM with HCT-116 colon; > 100 µM in the test with SK-MEL-2 melanoma; > 100 µM in the test with MALME-3M melanoma; 98.2 µM with NCI-H522 lung; > 100 µM with SF-539 CNS; > 100 µM in the test with SF-268 CNS. Further, the TGI in the test with MOLT-4 leukemia and with UO-31 renal was > 100 µM in each case.

Take `Cn1nc(-c2ccccc2)c(C(=O)/C=C/c2ccc(F)cc2)c(N2CCCCC2)c1=O`: the TGI in the test with HCT-116 colon came to 11.5 µM; with U251 CNS, 27.7 µM; in the test on NCI-H522 lung, 28.7 µM; with SF-539 CNS, 16.4 µM; in the test with SF-268 CNS, 37 µM; in the test on MOLT-4 leukemia it was 7.09 µM. Moreover, the TGI with UO-31 renal was found to be 19.1 µM.

For `Cc1ccc(S(=O)(=O)NCCNC2=CC(=O)c3nc4ccccc4c4ccnc2c34)cc1`, the GI50 in the test on HCT-116 colon was 26.9 µM; in the test with SK-MEL-2 melanoma, 33 µM; in the test with MALME-3M melanoma, 20.5 µM; in the test on U251 CNS it was 24.7 µM; in the test on NCI-H522 lung it was 15 µM; in the test on SF-539 CNS, 19.1 µM. Moreover, the GI50 was 19.1 µM with SF-268 CNS and 24.3 µM in the test with UO-31 renal. Besides, the TGI in the test on HCT-116 colon was > 100 µM; with SK-MEL-2 melanoma it was > 100 µM; with MALME-3M melanoma, 54.5 µM; with U251 CNS, 63.9 µM; with NCI-H522 lung, 37.3 µM; in the test on SF-539 CNS it was 38.3 µM. Also, the figures for the TGI in the test on SF-268 CNS and in the test with UO-31 renal were 52.3 µM and > 100 µM, respectively.
